The numbers were not newly measured in patent US20240016803A1, “PHARMACEUTICAL COMPOSITION COMPRISING EICOSAPENTAENOIC ACID AND DERIVATIVES THEREOF AND A STATIN” (Amarin Pharmaceuticals Ireland Limited, priority 2013, published 2024), which cites them from elsewhere.

Molecules are shown by their SMILES.

For the data set the following is noted: repeated twice-daily dosing of 2 icosapent ethyl 1 g capsules (4 g/d total); previously reported.

With `CC/C=C\C/C=C\C/C=C\C/C=C\C/C=C\CCCC(=O)OCC` [icosapent ethyl], the “mean elimination half-life (t1/2) for total plasma EPA” value was 89 h.
